These results are taken from ChEMBL document CHEMBL4725255, “Broad assessment of bioactivity of a collection of spiroindane pyrrolidines through "cell painting"” (Bioorg Med Chem, 2020).

Activity calls are given as the source filed them. No cut-off for these calls is given here.

The test has as its system U2OS. Nature of the test: Cytotoxicity against human U-2 OS cells assessed as change in cell morphology incubated for 24 hrs at […] measured after various levels of staining by micro XL microscopic-imaging analysis. It is filed as functional, cell-based.
On to `N#CC1Cc2ccccc2C12CCCN2` (stereo in doubt; 1), for which the result was Active.

For the molecule `COCCOC(=O)N1CCCC12CCc1ccc(C#CCO)cc12` (stereo not given), the result was Active.

`N#CC1Cc2ccccc2C12CCCN2` (stereo in doubt; 14): the result was inactive.

As to `COc1ccc(-c2ccc3c(c2)C2(CCCN2)C(C#N)C3)cc1` (stereo not given), the outcome was inactive.

Take `N#C[C@@H]1C[C@H]2[C@H]3[C@@H]1C=C[C@]32C1=NCCC1`: the result was Active.
